Assay results: patent publication US20250179057A1, “MEK IMMUNE ONCOLOGY INHIBITORS AND THERAPEUTIC USES THEREOF” (Immuneering Corporation, priority 2022, published 2025)
Where a name gives a salt, the structure may show the parent alone. Read-outs that look alike come from different tables or passages of the source. Each block holds one molecule with its values, some of them ahead of it.

Legend:
CYP2C8 = molecular target: T1, CYP2C8 (Homo sapiens, UniProt P10632); test: in vitro; conditions: microsomes, pH 7.4
T1 sequence (P10632 1-490): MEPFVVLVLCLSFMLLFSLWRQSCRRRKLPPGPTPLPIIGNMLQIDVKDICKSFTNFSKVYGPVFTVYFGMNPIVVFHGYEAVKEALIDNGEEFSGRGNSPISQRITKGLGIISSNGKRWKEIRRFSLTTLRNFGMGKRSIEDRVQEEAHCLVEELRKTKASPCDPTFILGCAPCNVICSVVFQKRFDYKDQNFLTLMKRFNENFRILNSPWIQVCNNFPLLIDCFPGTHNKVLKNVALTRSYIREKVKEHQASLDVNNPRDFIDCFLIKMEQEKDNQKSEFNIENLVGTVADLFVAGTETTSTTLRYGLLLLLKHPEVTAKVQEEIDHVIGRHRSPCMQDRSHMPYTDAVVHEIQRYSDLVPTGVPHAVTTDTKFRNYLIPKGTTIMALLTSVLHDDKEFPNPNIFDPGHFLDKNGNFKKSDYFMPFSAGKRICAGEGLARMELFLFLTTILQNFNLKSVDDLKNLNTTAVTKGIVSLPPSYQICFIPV

CYP2D6 = CYP2D6 (Homo sapiens, UniProt P10635); test: in vitro; conditions: microsomes, pH 7.4
[1] = tested on: phospho-ERK in SK-MEL-2 cells; test: pERK/tERK ratio in SK-MEL-2 melanoma model; type: cell-based; conditions: SK-MEL-2 (NRAS p.Q61R); 100 nM
Method: (§1) Compound (drug) treatment: Cells were plated in a 6-well plate at a density of 250,000-300,000 cells/well in 3 mL media and incubated 37° C. in a humidified, 5% CO2 incubator. […] These solutions were added to the cells (3 uL/well), mixed by swirling the plate, and incubated at 37° C. in a humidified, 5% CO2 incubator for 2 hours.
(§2) Cell lysis and protein estimation: Cells were washed with PBS, and scraped in 50 μL of lysis buffer containing protease and phosphatase inhibitors. Cell lysates were stored at −20° C. Cell lysates were thawed and spun at 12,000 rpm for one minute, 3 ul of the supernatant was added to 500 μL of Coomassie blue reagent following by 500 μL of water. […] Protein standards were used (0-20 mg/mL) to calculate protein concentrations of test samples.
(§3) All samples were heated at 95° C. for 5 minutes, cooled to room temperature and spun down. […] After the run, gel was removed and protein transfer was done using iBlot for 7 minutes, as per manufacturer's recommendations. After the transfer, nitrocellulose membrane was incubated on a shaker in 5 mL of blocking buffer at room temperature for 1 hr. The blot was then incubated overnight on a shaker in 5 ml of blocking buffer containing 0.2% Tween-20 and primary antibody, at room temperature. Anti-phospho-STAT3 antibody was used at a dilution of 1:500, the other 3 primary antibodies were used at a dilution of 1:1000.
(§4) Next day, the blot was washed 3 times for 10 min each with 10 mL of TBST followed by incubation on a shaker in 5 ml of blocking buffer containing 0.2% Tween-20 and 0.5 ul of the IRDye labeled secondary antibodies, diluted 1:10000, at room temperature for 1 hr. The blot was then washed 3 times for 10 min each with 10 mL of TBST and dried between sheets of paper towels. Imaging was done using LICOR's Odyssey imaging system, quantitation was done using their software, Image Studio version 3.1.
(§5) The nine models are described in Table 16.

[2] = tested on: phospho-MEK in MM415 cells; test: pMEK/tMEK ratio in MM415 melanoma model; type: cell-based
Method: as §1, §2, §3, §4, §5

[3] = tested on: phospho-ERK in MM127 cells; test: pERK/tERK ratio in MM127 melanoma model; type: cell-based; conditions: MM127 (NRAS p.G13R, BRAF p.G464E); 100 nM
Method: as §1, §2, §3, §4, §5

[4] = tested on: phospho-MEK in SK-MEL-28 cells; test: pMEK/tMEK ratio in SK-MEL-28 melanoma model; type: cell-based; conditions: SK-MEL-28 (BRAF p.V600E); 100 nM
Method: as §1, §2, §3, §4, §5

CYP3A4 = CYP3A4 (Homo sapiens, UniProt P08684); test: in vitro; conditions: microsomes, pH 7.4
[5] = tested on: phospho-MEK in A549 cells; test: Cell-based pMEK (pMEK:tMEK, CRAF bypass) in A549 cells; conditions: for A549-CRAF BP 100 nM, 2 h: pMEK to total MEK normalized to DMSO control
How it was run: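 Cells (A549 or A375) exposed 2 h to compounds at varying concentrations in duplicate, then lysed; lysates set to 1.5 mg/mL for pMEK by quantitative Western (Jess). Phospho-MEK/total MEK ratio normalized to DMSO control.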

[6] = eLogD (lipophilicity; pH 7.4) by HPLC; type: physicochemical
Method: Test compounds were dissolved in DMSO at a concentration of 10 mM and further diluted with methanol:water 1:1. Samples were analyzed using gradient HPLC with three different isocratic mobile phases of 0.25% octanol in methanol (60, 65 and 70%) and 20 mM MOPS buffer (pH 7.4) with decylamine. If needed, (for low E log Doct compounds) the isocratic mobile phases were adjusted to e.g. 40, 45 and 50% methanol. Peaks were detected using a diode array at absorbance 220-320 nm.
Capacity factors data (k′_=(tr−_t0)/t0) obtained at various amounts of methanol were extrapolated to 0% methanol and k′w values are determined using a linear procedure. E log Doct (7.4) is calculated using a series of reference standards with known Log D values. Each experiment was performed in triplicate.

[7] = Mouse liver microsome stability (t1/2, Clint); conditions: for half-life at 1 μM / microsomal CLint at 1 μM: mouse, liver microsomes, pH 7.4
[8] = 1 μM, 0.5 mg/ml microsomal protein

Chain of CYP3A4 (P08684 whole entry): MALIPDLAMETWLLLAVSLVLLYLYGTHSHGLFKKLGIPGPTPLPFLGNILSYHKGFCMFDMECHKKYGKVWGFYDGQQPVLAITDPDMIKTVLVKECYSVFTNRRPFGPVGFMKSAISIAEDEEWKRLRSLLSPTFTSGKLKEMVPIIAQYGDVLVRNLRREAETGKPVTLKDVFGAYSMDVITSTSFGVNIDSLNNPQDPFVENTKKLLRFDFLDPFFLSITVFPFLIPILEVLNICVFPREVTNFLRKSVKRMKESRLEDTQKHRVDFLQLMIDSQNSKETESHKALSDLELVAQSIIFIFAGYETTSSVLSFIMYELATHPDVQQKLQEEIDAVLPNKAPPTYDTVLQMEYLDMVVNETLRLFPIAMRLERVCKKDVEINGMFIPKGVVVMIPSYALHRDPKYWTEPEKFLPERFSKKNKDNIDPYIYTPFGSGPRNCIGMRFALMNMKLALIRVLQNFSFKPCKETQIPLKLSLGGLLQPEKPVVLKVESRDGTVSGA
Chain of CYP2D6 (P10635 whole entry): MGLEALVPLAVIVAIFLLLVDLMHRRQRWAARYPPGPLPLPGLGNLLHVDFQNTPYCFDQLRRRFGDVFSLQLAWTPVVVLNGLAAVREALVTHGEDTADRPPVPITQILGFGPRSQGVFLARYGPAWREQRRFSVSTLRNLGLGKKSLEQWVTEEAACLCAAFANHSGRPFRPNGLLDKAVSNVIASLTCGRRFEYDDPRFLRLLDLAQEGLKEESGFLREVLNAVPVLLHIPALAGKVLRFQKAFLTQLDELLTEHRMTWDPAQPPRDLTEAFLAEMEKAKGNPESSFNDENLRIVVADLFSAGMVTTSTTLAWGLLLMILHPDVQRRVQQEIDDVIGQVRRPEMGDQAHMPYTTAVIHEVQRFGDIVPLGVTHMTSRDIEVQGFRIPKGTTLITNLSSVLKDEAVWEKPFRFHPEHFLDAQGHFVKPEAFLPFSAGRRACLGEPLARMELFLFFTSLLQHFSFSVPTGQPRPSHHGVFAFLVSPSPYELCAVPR

SMILES: CCN(C)Cc1c(Cc2cccc(NS(=O)(=O)NC)c2Cl)c(=O)oc2cc(OC(=O)N(C)C)ccc12 [Compound 245, 3-(2-chloro-3-((N-methylsulfamoyl)amino)benzyl)-4-((ethyl(methyl)amino)methyl)-2-oxo-2H-chromen-7-yl dimethylcarbamate]
inhibition at 30 min, 10 µM (CYP2C8): 30.4%
inhibition at 30 min, 10 µM (CYP2D6): 13.7%

SMILES: CNS(=O)(=O)Nc1cccc(Cc2c(CN(C)C)c3ccc(OC(=O)N(C)C)cc3oc2=O)c1Cl [Compound 274, 3-(2-chloro-3-((N-methylsulfamoyl)amino)benzyl)-4-((dimethylamino)methyl)-2-oxo-2H-chromen-7-yl dimethylcarbamate]
inhibition at 30 min, 10 µM (CYP2C8): 11.9%
pERK/tERK ratio normalized to DMSO [1]: 0.439
pMEK/tMEK ratio normalized to DMSO ([2]; MM415 (NRAS p.Q61L), 100 nM): 0.58
pERK/tERK ratio normalized to DMSO [3]: 0.533
inhibition at 30 min, 10 µM (CYP2D6): 2.5%
pMEK/tMEK ratio normalized to DMSO [4]: 0.763

SMILES: CNS(=O)(=O)Nc1cccc(Cc2c(CN3CCNCC3)c3ccc(OC(=O)N(C)C)cc3oc2=O)c1Cl [Compound 246, 3-(2-chloro-3-((N-methylsulfamoyl)amino)benzyl)-2-oxo-4-(piperazin-1-ylmethyl)-2H-chromen-7-yl dimethylcarbamate hydrochloride]
inhibition at 30 min, 10 µM (CYP2C8): 10.5%
inhibition at 30 min, 10 µM (CYP2D6): 5.1%
inhibition at 30 min, 10 µM (CYP3A4): 16.2%

SMILES: CNS(=O)(=O)Nc1cccc(Cc2c(CN(C)C)c3cc(F)c(OC(=O)N(C)C)cc3oc2=O)c1F [Compound 25]
A549-CRAF BP 100 nM, 2 h [5]: 71

SMILES: Cn1cnc2c(F)c(Nc3ccc(Br)cc3Cl)c(C(=O)NOCCO)cc21 [Reference-1, Selumetinib]
pERK/tERK ratio normalized to DMSO [1]: 0.191
chromatographic logD [6]: 3.6
pMEK/tMEK ratio normalized to DMSO [2]: 2.386
CRAF A549 pMEK:tMEK [100 nM; 2 hr] [5]: 2.09
pERK/tERK ratio normalized to DMSO [3]: 0.255
half-life at 1 μM [7]: 18 min
microsomal CLint at 1 μM [7]: 78 µL/min/mg
A-B Permeability Ranking (Caco-2 cells): High
pMEK/tMEK ratio normalized to DMSO [4]: 0.984

SMILES: CNS(=O)(=O)Nc1cccc(Cc2c(CN3CCNCC3)c3cc(Cl)c(OC(=O)N(C)C)cc3oc2=O)c1Cl [Compound 256, 6-chloro-3-(2-chloro-3-((N-methylsulfamoyl)amino)benzyl)-2-oxo-4-(piperazin-1-ylmethyl)-2H-chromen-7-yl dimethylcarbamate hydrochloride]
inhibition at 30 min, 10 µM (CYP2C8): 97%
inhibition at 30 min, 10 µM (CYP2D6): 7.1%
inhibition at 30 min, 10 µM (CYP3A4): 61.8%

SMILES: CCS(=O)(=O)Nc1cccc(Cc2c(CN3CCNCC3)c3cc(Cl)c(OC(=O)N(C)C)cc3oc2=O)c1Cl [Compound 257, 6-chloro-3-(2-chloro-3-(ethylsulfonamido)benzyl)-2-oxo-4-(piperazin-1-ylmethyl)-2H-chromen-7-yl dimethylcarbamate hydrochloride]
inhibition at 30 min, 10 µM (CYP2C8): 97.5%
inhibition at 30 min, 10 µM (CYP2D6): 10.1%
inhibition at 30 min, 10 µM (CYP3A4): 67.4%

SMILES: CNS(=O)(=O)Nc1cccc(Cc2c(CN(C)C)c3ccc(OC(=O)N(C)C)cc3oc2=O)c1F [Compound 9]
eLogD (lipophilicity; pH = 7.4) [6]: 3.0
A549-CRAF BP 100 nM, 2 h [5]: 44.9 (mean, n = 8)
CRAF A549 pMEK:tMEK [100 nM; 2 hr] [5]: 0.47
Mouse Clint [7, 8]: 32 µL/min/mg
Mouse Microsome (t1/2 min) [7, 8]: 44 min

chromatographic logD [6]: 3.6
half-life at 1 μM [7]: 18 min
microsomal CLint at 1 μM [7]: 78 µL/min/mg
A-B Permeability Ranking (Caco-2 cells): High
SMILES: CNS(=O)(=O)Nc1nccc(Cc2c(C)c3ccc(Oc4ncccn4)cc3oc2=O)c1F [Reference-2, reference compound]
CRAF A549 pMEK:tMEK [100 nM; 2 hr] [5]: 2.09

SMILES: CNS(=O)(=O)Nc1cccc(Cc2c(CN3CCNCC3)c3cc(F)c(OC(=O)N(C)C)cc3oc2=O)c1F [Compound 134]
A549-CRAF BP 100 nM, 2 h [5]: 26.9
